# Measured values as given in patent US7671230B2, “Derivatization and solubilization of insoluble classes of fullerenes” (TDA Research, Inc., priority 2001, dated 2010).
# Legend:
# [1] = Solubility of fullerenic species and their derivatives in solvents; format: physicochemical; details: for solubility of derivative in organic solvents: common polar and non-polar organic solvents; for solubility class: both non-polar and polar solvents
# Description: Insoluble fullerenes are any fullerenic species generated by any known method which are not soluble in solvents (common solvents, i.e., non-polar organic solvents, such as hydrocarbons and arenes and halogenated arenes, including toluene, benzene) commonly employed to solublize fullerenes, such as C60. Solubility (or lack thereof) of a given fullerenic species in a given solvent can be assessed by methods known in the art, e.g., by assessing how much of a fullerenic species can be extracted into a given amount of solvent, for example, using mass spectrometric methods as illustrated herein. The insoluble classes of fullerenes are also insoluble in polar solvents. […] Non-derivatized fullerenic species are in general not soluble in almost all polar solvents. However, fullerenic species, if soluble have an anomalously high solubility in polar chloro and bromo substituted arenes. As discussed herein and as is understood in the art certain classes of non-derivatized fullerenic species are soluble in non-polar solvents such as toluene and benzene.
# The methods of this invention can be used to derivatize insoluble fullerenic species and related carbon nanotube species to make them soluble (or to enhance the solubility of given fullerenic species or carbon nanotubes). Derivatization reaction of this invention may render the derivatized species soluble (or enhance its solubility) in common non-polar solvents or it may render the derivatized species soluble (or enhance its solubility) in polar solvents. For purposes of this application, solubility is defined as the dissolution of free molecules (or salts) in the solvent with reversibility to remove the solvent to obtain the molecules (or salts) dissolved. In preferred cases, the solvent is readily removed by application of reduced pressure and/ or by non-destructive heating. A species may also be removed from solution by recrystallization, for example by addition of solvent in which the species is not soluble to the solution. Certain solvents may readily dissolve a given species, but may not be removable to regenerate the species that was dissolved or it may not be possible to recrystallize the species unchanged. For example, the solvent may only be partially removable or the solvent may have reacted with the species causing a chemical change or irreversible adduct formation.
# In general, fullerenes have “low solubility” in all solvents compared to most organic compounds. […] C60 is insoluble in polar solvents like acetonitrile and methanol (no measurable amount dissolves). […] C60 is soluble in substituted naphthalenes (30 to 50 mg/mL). […] As noted above, insoluble classes of fullerenic species are also insoluble in polar solvents.
# [2] = Air/water stability of derivatized materials (long-term stability of solutions, re-dissolution of exposed solids); format: physicochemical; details: presence of oxygen and/or water; no evidence for decomposition over several months time
# [3] = Aqueous-phase size-exclusion chromatography (SEC-HPLC), aggregation; format: physicochemical
# Procedure: This derivatized metallofullerene, Gd@C60(C(COOCH2CH3)2)x, can be converted to a water-soluble species by de-esterification to carboxylic acid or carboxylate salt groups. This is performed by the method of Hirsch (Lamparth, 1994). The ester derivative (100 mg) is dissolved in toluene (15 mL) and vigorously stirred at reflux with excess solid NaH (100 mg) under argon for 2-3 hours. Next, methanol (3 mL) is added with stirring. Vigorous bubbling is observed, followed by precipitation of the sodium carboxylate salt of the Gd@C60 derivative. The solid is isolated, dissolved in water, and partially purified with dialysis tubing (MW cutoff˜500). The water is removed from an aqueous solution of the carboxylate with a rotary evaporator connected to a vacuum source; it is important to avoid decarboxylation by heating gently (<50° C.). Lowering the pH of aqueous solutions of the carboxylate salt can produce the acid form, which may have less water solubility depending on the number of acid groups present. […] Ion-exchange resin (Dowex-50, etc. etc.) can be used to change the counterion in Gd@C60(C(COONa)2)x to other alkali metals etc. or to hydrogen (proton) i.e. Gd@C60(C(COOH)2)x.
# [4] = aqueous; compared with conventional inorganic chelates; cited from earlier work
substance,measurement,setting,value
Gd@C60(C(COOCH2CH3)2)x,solubility of derivative in organic solvents,[1],solubility in a variety of common polar and non-polar organic solvents
same,stability in air / oxygen and water,[2],air-stable
^166Ho@C60(C(COOCH2CH3)2)x,solubility in THF after derivatization,[1]; tetrahydrofuran,soluble
Gd@C60(C(COONa)2)x,water solubility,[1],fully water-soluble
same,aggregation state in aqueous solution,[3],not clustered in large aggregates
same,stability in air / oxygen and water,[2],air-stable
Gd@C82(OH)x,R1 relaxivity,[4],higher R1 values
Gd@C60,solubility class,[1],Insoluble
Gd@C82,solubility class,[1],Slightly Soluble
Gd@C60(C(COOH)2)x,stability in air / oxygen and water,[2],air-stable
^166Ho@C60(C(COONa)2)x,water solubility,[1],water soluble
C60(C33H48O12),solubility of derivative in organic solvents,[1],solubility in a variety of common polar and non-polar organic solvents
